{
  "source": "paper PMC10132538",
  "about": "“Regulation of the two-pore domain potassium channel, THIK-1 and THIK-2, by G protein coupled receptors” (PLOS ONE, 2023)",
  "key": {"ΔN-THIK-2 channel": {"molecular_target": "T1, ΔN-THIK-2 channel (Mus musculus, UniProt F6UVE5)", "T1 construct": "expressed in transfected cells; host or cells: CHO-K1", "T1 sequence (F6UVE5 with tags, fused parts or gaps)": "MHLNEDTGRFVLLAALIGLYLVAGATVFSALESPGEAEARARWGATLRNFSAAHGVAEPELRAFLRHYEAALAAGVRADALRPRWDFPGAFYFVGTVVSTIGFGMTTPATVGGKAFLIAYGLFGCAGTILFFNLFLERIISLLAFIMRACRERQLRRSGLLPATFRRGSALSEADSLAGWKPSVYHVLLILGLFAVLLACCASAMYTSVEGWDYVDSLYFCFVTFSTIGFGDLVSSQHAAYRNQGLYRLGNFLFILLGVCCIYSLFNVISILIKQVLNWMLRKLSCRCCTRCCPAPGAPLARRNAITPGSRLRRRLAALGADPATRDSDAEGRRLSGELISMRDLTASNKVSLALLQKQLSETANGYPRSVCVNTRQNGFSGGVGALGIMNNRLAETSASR", "assay": "Effect of DAG analogue on ΔN-THIK-2 channel current (I10th/I0) in CHO-K1 cells", "assay_type": "cell-based", "conditions": "10 and 30 μM", "text": "(§1) Pertussis toxin (PTX) was purchased from Wako (Osaka, Japan).\nFig 7 Effect of C-Ala mutation or OAG on ΔN-THIK-2 channel. (A) Current-voltage relationships before and after stimulation of mGlu2. […]. (B) Effects of the mGlu2 activation on the ΔN-THIK-2 and C-Ala mutants. […]. Mean and S.D. are shown as bars (n = 11–12). (C) Current-voltage relationships before and after application of OAG. The current-voltage relationships before and 50 sec after application of OAG are shown (black and red lines, respectively). The tested concentration of OAG was 10 μM (left) and 30 μM (right). (D) Effects of OAG on the ΔN-THIK-2 channel. The ratio (I10th/I0) are not different between OAG applied group (filled circles) and vehicle applied group (open circles). Mean and S.D. are shown as bars (n = 7–11). **: 0.001<p≤ 0.01, n.s.: p> 0.05."}, "THIK-1 channel [1]": {"molecular_target": "T2, THIK-1 channel (Mus musculus, UniProt Q8R1P5)", "T2 construct": "expressed in transfected cells; host or cells: HEK293T", "T2 sequence (Q8R1P5 1-405)": "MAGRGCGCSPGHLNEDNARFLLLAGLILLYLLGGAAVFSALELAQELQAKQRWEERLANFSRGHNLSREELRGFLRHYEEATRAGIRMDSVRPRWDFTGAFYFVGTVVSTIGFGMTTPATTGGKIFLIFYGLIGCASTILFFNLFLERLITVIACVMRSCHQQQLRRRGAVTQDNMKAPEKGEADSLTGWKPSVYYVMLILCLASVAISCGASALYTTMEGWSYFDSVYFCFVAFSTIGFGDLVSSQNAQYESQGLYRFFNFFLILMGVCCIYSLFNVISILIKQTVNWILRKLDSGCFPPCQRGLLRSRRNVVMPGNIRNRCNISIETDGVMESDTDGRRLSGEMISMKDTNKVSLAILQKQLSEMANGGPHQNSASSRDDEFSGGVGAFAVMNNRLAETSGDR", "assay": "Effect of DAG analogue on THIK-1 channel current (I10th/I0)", "assay_type": "cell-based", "conditions": "50 sec after application", "text": "as §1\nFig 5 Effects of OAG on THIK-1 channel current. (A) Current and membrane potential relationships before and after application of OAG. Ramp pulses were applied ever 5 sec before and after application of OAG. The current and membrane potential relationships before (black) and 50 sec after application of the indicated concentration of OAG (red) are shown. (B) Effects of OAG on THIK-1 channel. Circles indicate the ratio of the current amplitudes after application of OAG or DMSO to the amplitudes before application of them (I10th/I0). Mean and S.D. are shown as bars (n = 8–12). n.s.: p> 0.05."}, "mGlu2": {"molecular_target": "T3, mGlu2 (Rattus norvegicus, UniProt P31421)", "T3 construct": "expressed in transfected cells; host or cells: HEK293T", "T3 sequence (P31421 19-872)": "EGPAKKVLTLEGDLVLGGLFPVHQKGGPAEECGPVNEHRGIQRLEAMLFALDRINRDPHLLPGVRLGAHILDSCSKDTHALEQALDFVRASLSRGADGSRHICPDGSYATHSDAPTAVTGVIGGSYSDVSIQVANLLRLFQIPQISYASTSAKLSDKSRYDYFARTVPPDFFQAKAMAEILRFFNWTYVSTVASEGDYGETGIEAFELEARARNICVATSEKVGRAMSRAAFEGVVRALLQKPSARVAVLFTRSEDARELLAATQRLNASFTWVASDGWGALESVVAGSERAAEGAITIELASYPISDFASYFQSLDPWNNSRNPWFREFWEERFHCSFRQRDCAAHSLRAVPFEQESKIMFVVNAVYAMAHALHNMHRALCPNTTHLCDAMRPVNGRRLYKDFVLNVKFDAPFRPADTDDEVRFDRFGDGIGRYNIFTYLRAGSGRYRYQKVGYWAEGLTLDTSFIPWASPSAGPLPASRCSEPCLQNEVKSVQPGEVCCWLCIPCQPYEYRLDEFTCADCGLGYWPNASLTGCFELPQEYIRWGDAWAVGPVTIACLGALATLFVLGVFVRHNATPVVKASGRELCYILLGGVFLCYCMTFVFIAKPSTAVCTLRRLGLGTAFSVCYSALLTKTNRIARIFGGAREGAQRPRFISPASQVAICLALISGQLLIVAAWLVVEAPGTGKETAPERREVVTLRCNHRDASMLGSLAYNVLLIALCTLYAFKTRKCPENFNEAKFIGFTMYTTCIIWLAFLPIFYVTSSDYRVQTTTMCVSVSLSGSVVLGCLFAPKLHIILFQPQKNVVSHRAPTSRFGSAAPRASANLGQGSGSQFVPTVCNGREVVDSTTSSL", "assay": "mGlu2-induced increase of THIK-1 channel current, whole cell patch clamp in HEK293T cells", "assay_type": "cell-based", "conditions": "concentration response of THIK-1 current increase", "text": "(§2) Coding region of mGu2 (M1-P840) was amplified by conventional PCR with designed primers and the resulting product was subcloned into pEYFP-N1 vector at the BglII and EcoRI sites. The cDNAs for mouse THIK-2 channel and dimeric THIK channels were subcloned into pcDNA3.1(-) vector. To increase the surface membrane expression of the THIK-2 channel, 29 residues (Ser2-Ser30) were removed (ΔN-THIK-2). […] Ci-VSP-IRES-GFP vector was kindly gifted by Dr. Y. Okamura (Osaka University, Osaka, Japan). HEK293T cells or CHO-K1 cells were seeded on glasses and transfected with the plasmid DNAs for THIK channels, receptors and a transfection marker of yellow fluorescent protein (YFP). Electrophysiological experiments were performed 24–72 h after the transfection. […] Pertussis toxin (PTX) was purchased from Wako (Osaka, Japan). […] All reagents were dissolved at high concentration and stored at -20 °C as the stock solutions. The stock reagent solution was diluted at concentrations for the electrophysiological experiments. […]\n(§3) The amplitude of the THIK-1 channel current at 0 mV was measured from every trace induced by the ramp pulse protocol to minimize the fraction of non-selective cationic leak current. […] The effects of GPCRs on the THIK-1 channel were evaluated as the ratio of the current amplitude after the agonist application to I0 (Iagonist/I0). […]"}, "[2]": {"test_system": "endogenously expressed channels in HEK293T cells", "assay": "Effect of receptor stimulation on the endogenous current in HEK293T cells without THIK-1", "assay_type": "cell-based", "text": "The amplitude of the current increase at the 15th trace (ΔI15th) after the application of GABA or oxo-M were normalized to that at the 5th traces (ΔI5th) with or without additional activation of A2aR (ΔI15th/ΔI5th).\nThe current density at 0 mV (I0) in HEK293T cell transfected with indicated receptors and the effects of the receptor stimulation are shown as Mean and S.D."}, "[3]": {"molecular_target": "T4, mGlu2-YFP / ΔN-THIK-2 channel (Rattus norvegicus, UniProt P31421)", "T4 construct": "Coding region of mGu2 (M1-P840) was amplified by conventional PCR; expressed in transfected cells; host or cells: CHO-K1", "T4 sequence (P31421 19-840, stated change not applied)": "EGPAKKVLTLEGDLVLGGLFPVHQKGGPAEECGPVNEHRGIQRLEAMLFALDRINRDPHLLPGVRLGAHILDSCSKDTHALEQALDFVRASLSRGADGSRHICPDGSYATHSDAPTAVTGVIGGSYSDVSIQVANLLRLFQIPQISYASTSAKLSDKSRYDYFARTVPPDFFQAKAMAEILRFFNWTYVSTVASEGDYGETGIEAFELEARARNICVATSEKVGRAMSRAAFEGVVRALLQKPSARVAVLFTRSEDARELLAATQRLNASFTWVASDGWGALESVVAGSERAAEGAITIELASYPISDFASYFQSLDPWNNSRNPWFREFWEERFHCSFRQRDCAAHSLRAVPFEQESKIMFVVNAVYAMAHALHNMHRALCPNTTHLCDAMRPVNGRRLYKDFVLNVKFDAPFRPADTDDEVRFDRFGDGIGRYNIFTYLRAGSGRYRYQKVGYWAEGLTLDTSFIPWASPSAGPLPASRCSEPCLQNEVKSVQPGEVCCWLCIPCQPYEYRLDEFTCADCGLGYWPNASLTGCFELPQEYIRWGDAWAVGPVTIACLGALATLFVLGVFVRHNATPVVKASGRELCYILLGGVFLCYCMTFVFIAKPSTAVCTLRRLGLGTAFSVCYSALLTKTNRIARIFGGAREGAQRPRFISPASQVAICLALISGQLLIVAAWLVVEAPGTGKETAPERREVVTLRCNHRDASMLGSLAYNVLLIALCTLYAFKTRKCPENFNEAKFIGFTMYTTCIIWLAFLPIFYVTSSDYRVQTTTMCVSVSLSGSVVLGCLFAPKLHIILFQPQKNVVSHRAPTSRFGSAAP", "assay": "mGlu2-YFP-induced increase of ΔN-THIK-2 channel current in CHO-K1 cells", "assay_type": "cell-based, mouse", "conditions": "PTX treated cells, glutamate 200 μM", "text": "as §2, with “experiments. PTX was solved in the culture medium (final concentration, 300 ng/mL) and cells were incubated in it for more than 16 h. U73122 or U73343 (final concentration, 2 μM each) was dissolved in Hanks’ Balanced Salt Solution (HBSS, Invitrogen, Carlsbad, CA, USA) supplemented with 1 mM Ca^2+ and 0.3 mM Mg^2+.” for “experiments.”"}, "GABABR": {"molecular_target": "T5, GABABR (Homo sapiens, UniProt Q9UBS5)", "T5 construct": "expressed in transfected cells; host or cells: HEK293T", "T5 sequence (Q9UBS5 15-961 limits assumed)": "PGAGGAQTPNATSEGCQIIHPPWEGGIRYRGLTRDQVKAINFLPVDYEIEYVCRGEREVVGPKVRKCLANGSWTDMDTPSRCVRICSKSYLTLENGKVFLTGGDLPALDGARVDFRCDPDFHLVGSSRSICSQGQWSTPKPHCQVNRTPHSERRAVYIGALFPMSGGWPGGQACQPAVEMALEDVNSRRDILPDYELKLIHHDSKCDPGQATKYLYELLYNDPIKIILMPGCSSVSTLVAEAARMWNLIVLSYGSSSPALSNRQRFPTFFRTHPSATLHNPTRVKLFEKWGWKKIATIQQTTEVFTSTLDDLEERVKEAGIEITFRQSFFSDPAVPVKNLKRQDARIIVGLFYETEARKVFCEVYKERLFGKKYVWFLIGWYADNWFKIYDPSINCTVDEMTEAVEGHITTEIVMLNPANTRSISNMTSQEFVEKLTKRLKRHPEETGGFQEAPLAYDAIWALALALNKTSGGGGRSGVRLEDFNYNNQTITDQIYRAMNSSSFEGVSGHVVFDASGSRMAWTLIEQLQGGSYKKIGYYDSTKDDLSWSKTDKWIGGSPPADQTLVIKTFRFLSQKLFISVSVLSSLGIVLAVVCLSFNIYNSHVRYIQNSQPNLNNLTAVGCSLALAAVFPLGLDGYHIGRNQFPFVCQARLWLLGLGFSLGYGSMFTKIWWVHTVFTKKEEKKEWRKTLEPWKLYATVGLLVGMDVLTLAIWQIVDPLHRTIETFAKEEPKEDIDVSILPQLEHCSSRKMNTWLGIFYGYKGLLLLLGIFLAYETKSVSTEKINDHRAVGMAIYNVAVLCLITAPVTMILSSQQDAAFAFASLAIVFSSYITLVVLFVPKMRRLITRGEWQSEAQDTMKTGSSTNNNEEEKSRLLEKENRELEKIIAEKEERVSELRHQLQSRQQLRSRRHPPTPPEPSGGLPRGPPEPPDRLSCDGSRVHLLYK", "T5 sequence (O75899 42-941 partner)": "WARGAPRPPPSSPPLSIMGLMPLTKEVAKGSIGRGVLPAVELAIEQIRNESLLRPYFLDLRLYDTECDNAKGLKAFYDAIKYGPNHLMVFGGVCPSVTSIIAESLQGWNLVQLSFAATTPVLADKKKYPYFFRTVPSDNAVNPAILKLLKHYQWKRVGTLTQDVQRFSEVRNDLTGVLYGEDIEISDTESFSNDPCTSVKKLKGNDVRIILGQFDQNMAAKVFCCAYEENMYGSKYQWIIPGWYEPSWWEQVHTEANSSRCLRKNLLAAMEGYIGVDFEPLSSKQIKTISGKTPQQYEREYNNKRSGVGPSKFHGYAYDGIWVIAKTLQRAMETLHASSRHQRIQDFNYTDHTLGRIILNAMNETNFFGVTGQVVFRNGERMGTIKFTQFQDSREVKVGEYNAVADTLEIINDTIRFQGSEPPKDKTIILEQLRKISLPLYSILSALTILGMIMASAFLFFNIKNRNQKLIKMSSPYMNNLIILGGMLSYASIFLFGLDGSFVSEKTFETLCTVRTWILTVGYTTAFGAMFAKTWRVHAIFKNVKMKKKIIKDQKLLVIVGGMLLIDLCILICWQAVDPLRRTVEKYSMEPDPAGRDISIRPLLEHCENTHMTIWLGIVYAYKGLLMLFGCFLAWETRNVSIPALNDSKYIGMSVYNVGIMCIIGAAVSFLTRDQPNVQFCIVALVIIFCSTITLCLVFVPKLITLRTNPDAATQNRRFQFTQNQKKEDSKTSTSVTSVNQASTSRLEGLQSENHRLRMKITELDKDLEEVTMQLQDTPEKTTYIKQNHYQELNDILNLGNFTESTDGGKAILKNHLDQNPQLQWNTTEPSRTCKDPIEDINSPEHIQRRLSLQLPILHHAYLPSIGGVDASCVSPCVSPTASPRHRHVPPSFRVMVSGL", "assay": "GABABR-induced increase of THIK-1 channel current, whole cell patch clamp in HEK293T cells", "assay_type": "cell-based", "conditions": "PTX 300 ng/mL, more than 16 h", "text": "as §2, §3"}, "THIK-1 channel [4]": {"test_system": "THIK-1 channel", "assay": "Basal current (I0) density of THIK-1 channel at 0 mV in HEK293T cells", "assay_type": "cell-based", "conditions": "0 mV, before agonist", "text": "Coding region of mGu2 (M1-P840) was amplified by conventional PCR with designed primers and the resulting product was subcloned into pEYFP-N1 vector at the BglII and EcoRI sites. The cDNAs for mouse THIK-2 channel and dimeric THIK channels were subcloned into pcDNA3.1(-) vector. To increase the surface membrane expression of the THIK-2 channel, 29 residues (Ser2-Ser30) were removed (ΔN-THIK-2). […] Ci-VSP-IRES-GFP vector was kindly gifted by Dr. Y. Okamura (Osaka University, Osaka, Japan). HEK293T cells or CHO-K1 cells were seeded on glasses and transfected with the plasmid DNAs for THIK channels, receptors and a transfection marker of yellow fluorescent protein (YFP). Electrophysiological experiments were performed 24–72 h after the transfection. […] Pertussis toxin (PTX) was purchased from Wako (Osaka, Japan). […] All reagents were dissolved at high concentration and stored at -20 °C as the stock solutions. The stock reagent solution was diluted at concentrations for the electrophysiological experiments. PTX was solved in the culture medium (final concentration, 300 ng/mL) and cells were incubated in it for more than 16 h. U73122 or U73343 (final concentration, 2 μM each) was dissolved in Hanks’ Balanced Salt Solution (HBSS, Invitrogen, Carlsbad, CA, USA) supplemented with 1 mM Ca^2+ and 0.3 mM Mg^2+. Cells were incubated in HBSS with U73122 or U73343 for 10 min at room temperature before the whole cell current recording.\nComposition of bath solution was (in mM) 140 NaCl, 4 KCl, 1 CaCl2, 0.3 MgCl2, 10 HEPES (pH 7.4 adjusted with NaOH). The pipette solution for whole cell patch clamp experiments contained (mM) 130 KCl, 5 Na2-ATP, 3 EGTA, 0.1 CaCl2, 10 HEPES, 4 MgCl2, (pH 7.3 adjusted with KOH). GTP (0.3 mM) was supplemented in the pipette solution. Once the whole cell configuration was established, the cell was held at -80mV and ramp pulses (-120mV to +40mV for 0.4 sec) were applied every 5 sec. Various concentrations of the agonists were applied using a fast perfusion system (VC77SP, Warner Instruments, Hamden, CT, USA). The PKC inhibitor chelerythrine was included in the pipette solution.\nThe amplitude of the THIK-1 channel current at 0 mV was measured from every trace induced by the ramp pulse protocol to minimize the fraction of non-selective cationic leak current. The current amplitude before the agonist application was set as the basal current amplitude (I0). The effects of GPCRs on the THIK-1 channel were evaluated as the ratio of the current amplitude after the agonist application to I0 (Iagonist/I0). The EC50 values were estimated by fitting the concentration response curve to a Hill equation (Origin2016; OriginLab, Northampton, MA, USA). […] The effects of A2aR on the Gi/o-R-induced current increase of the THIK-1 channel was estimated as follows. […] All data are shown as means and S.D. The statistical significance between two or more than two groups was estimated by unpaired Student’s t-test or by a one-way analysis of variance (ANOVA) followed by Tukey’s test, respectively. […] Values of p≤ 0.05 were considered as statistically significant (***:p≤0.001, **:0.001<p≤0.01, *:0.01<p≤0.05, n.s.:p>0.05)."}},
  "data": [
    {"compound": "CCCCCCCC/C=C\\CCCCCCCC(=O)OC[C@H](CO)OC(C)=O", "note": "[OAG, 1-oleoyle-2-acetyl-sn-glycerol]", "values": [
      {"measurement": "current amplitude of ΔN-THIK-2 channel", "setting": "ΔN-THIK-2 channel", "value": "did not increase the current amplitude"},
      {"measurement": "increase in the amplitude of the THIK-1 channel current (I10th/I0) versus vehicle (DMSO)", "setting": "THIK-1 channel [1]", "value": "not significantly different"}
    ]},
    {"compound": "N[C@@H](CCC(=O)O)C(=O)O", "note": "[glutamate, L-glutamate]", "values": [
      {"measurement": "n; Hill coefficient", "setting": "mGlu2", "value": "1.19 ± 0.65"},
      {"measurement": "Effect of agonist (Iagonist/I0)", "setting": "[2]; HEK293T transfected with mGlu1, no THIK-1", "value": "0.98 ± 0.17"},
      {"measurement": "Effect of agonist (Iagonist/I0)", "setting": "[2]; HEK293T transfected with mGlu2, no THIK-1", "value": "0.92 ± 0.06"}
    ]},
    {"compound": "Pertussis toxin [PTX]", "values": [
      {"measurement": "effect of mGlu2-YFP on ΔN-THIK-2 channel after inhibitor treatment", "setting": "[3]", "value": "inhibited"},
      {"measurement": "effect of GABA on the THIK-1 channel after inhibitor treatment", "setting": "GABABR", "value": "not observed"},
      {"measurement": "Basal current (I0) density of THIK-1 channel", "setting": "THIK-1 channel [4]; THIK-1 + GABABR, + PTX (300 ng/mL)", "value": "170.6 ± 58.2 (7)^n.s. pA/pF"},
      {"measurement": "Basal current (I0) density of THIK-1 channel", "setting": "THIK-1 channel [4]; THIK-1 + M2R, + PTX (300 ng/mL)", "value": "168.6 ± 141.2 (6)^n.s pA/pF"},
      {"measurement": "Basal current (I0) density of THIK-1 channel", "setting": "THIK-1 channel [4]; THIK-1 + mGlu2, + PTX (300 ng/mL)", "value": "281.87 ± 148.3 (5)^n.s. pA/pF"}
    ]}
  ]
}
